*1 amine or outer side, *2 acyl side, *3 side chain or, on linkers, in order; H or OH if unused. Where a SMILES comes first, the peptide text is derived from it. Bridges are numbered along the chain shown (N, C = ends). [ ]: non-standard residue; d: D form. The star is where a group is joined. C20 diacid = O=C(O)CCCCCCCCCCCCCCCCCCC(=O)*; γGlu = O=C(O)[C@H](CCC(=O)[*:2])N[*:1]; Hyp = O=C(O)[C@@H]1C[C@@H](O)CN1; NMeI = CC[C@H](C)[C@H](NC)C(=O)O; Aad = N[C@@H](CCCC(=O)O)C(=O)O; Sar = CNCC(=O)O
What was measured:
Sprague Dawley rats = experiment: Oral glucose tolerance test (OGTT) in rats; type: in vivo, rat; details: fasted rats, 30 nmol/kg sc 16 hours before oral glucose bolus 2 g/kg
Description: Male Sprague Dawley rats [Crl:CD(SD), weight range 260-280 g upon arrival] were housed in groups of 2 (n=2) or 3 (n=3). The animals were maintained on a 12 h/12 h light/dark cycle. Animals had access ad libitum to a standard chow diet and tap water (domestic quality tap water) during the initial one week acclimatization period.
Fasted rats (fasted for 7 hours) were employed in the test. Rats had previously been randomized into two groups, designated test group and control group, respectively. The total number of animals per group was 10 (n=10).
A single subcutaneous injection of either vehicle (control group; vehicle: 50 mM histidine buffer, pH 7, with 200 mM mannitol) or Compound 7 in vehicle [test group; dose 30 nmol/kg body weight (2 ml/kg)] was subsequently administered to each animal. All rats then received an oral glucose bolus (2 g/kg) 16 hours after vehicle or compound administration. Blood glucose levels in tail blood samples taken 20 min. before glucose administration (time zero, baseline) and then 15 min., 30 min., 60 min., 90 min., 120 min. and 180 min after glucose administration were determined using a glucometer (GlucoSmart Swing™; MSP Bodmann GmbH, Germany).
The data are presented as mean±S.E.M. The two-sided unpaired Student t-test was used for statistical comparison of the test group and the control group.

[1] = Assessment of physical stability (Thioflavin T fibrillation); type: physicochemical; parameters: key: FND = fibrillation not detected; FD = fibrillation detected; details: 1 mg/ml, 40° C., ThT; for Fibrillation pH 4.0 (Ac): 50 mM acetate buffer pH 4.0, 96 hours; for Fibrillation pH 7.0 (His): 50 mM histidine buffer pH 7.0, 96 hours; for Fibrillation pH 7.0 (Phos.): 50 mM phosphate buffer pH 7.0, 96 hours
In short: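 1 mg/ml peptide with 40 μM ThT in 50 mM phosphate pH 7.0, 50 mM histidine pH 7.0 or 50 mM acetate pH 4.0, in triplicate. Fluorescence read every 10 min after 300 s agitation over 96 h at 40 °C. Lag-time (h) is the intersection of linear fits to stable and growth phases.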

[2] = Pharmacokinetic (PK) profiling in rats; type: in vivo, rat; parameters: CI/F (apparent clearance values): unit not given here; details: Sprague Dawley male rats, single sc 30 nmol/kg; for half-life: rat, plasma, read-out: Plasma terminal elimination half-life t1/2 (converted)
Description: Sprague Dawley male rats were given a single subcutaneous (sc) bolus of each peptide to be tested, as specified below. 30 nmol/kg doses of compound were administered. Blood samples were drawn from the tail vein prior to dosing and at 24, 48, 72, 96 and 168 hours after dosing. Blood samples were taken from two rats at each time point, and only 2 blood samples were drawn from each rat, i.e. […] were used for each compound. The rats were euthanized immediately after the last blood sampling by concussion and cervical dislocation.
The dosing vehicle used for each test peptide was a mannitol-containing histidine buffer (pH 7.0). Plasma samples were analyzed after precipitation with ethanol by liquid chromatography mass spectrometry (LC-MS/MS). Mean plasma concentrations were used for calculation of the pharmacokinetic parameters using the non-compartmental approach in Phoenix WinNonlin 6.3.
Plasma terminal elimination half-life (t1/2) was determined as ln(2)/λz, where λz is the magnitude of the slope of the log linear regression of the log concentration versus time profile during the terminal phase. Apparent clearance (CL/F) was determined as dose/AUCinf (sc), where AUCinf is the area under the plasma concentration vs. time curve extrapolated to infinity (AUCinf=AUClast+Clast/λz, where Clast is the last observed plasma concentration).

Fibrillation pH 4.0 (Ac) [1]	Fibrillation pH 7.0 (His) [1]	Fibrillation pH 7.0 (Phos.) [1]	CI/F (apparent clearance values) [2]	half-life [2] [h]	SMILES	Glucose AUC, t = 15-180 min.; mean ± S.E.M. (Sprague Dawley rats) [mmol·min/L]
FND	FND	FND	0.0087	–	CC[C@H](C)[C@@H](C(=O)N[C@@H](CC(C)C)C(=O)N[C@@H](CO)C(=O)N[C@@H](CO)C(=O)N[C@H](C(=O)N[C@@H](CCC(=O)O)C(=O)N[C@H](C(=O)NCC(=O)N[C@@H](CO)C(=O)N[C@@H](CC(N)=O)C(=O)N[C@H](C(=O)N1C[C@H](O)C[C@H]1C(N)=O)[C@@H](C)O)C(C)C)[C@@H](C)O)N(C)C(=O)[C@H](C)NC(=O)CN(C)C(=O)[C@H](Cc1ccccc1)NC(=O)[C@H](CO)NC(=O)[C@H](CO)NC(=O)[C@H](CCCNC(=N)N)NC(=O)[C@H](CCC(N)=O)NC(=O)[C@H](CC(C)C)NC(=O)[C@H](Cc1ccccc1)NC(=O)[C@H](Cc1c[nH]cn1)NC(=O)[C@H](C)NC(=O)[C@H](CC(C)C)NC(=O)[C@H](CCCNC(=N)N)NC(=O)[C@H](CCC(=O)O)NC(=O)[C@@H](NC(=O)[C@H](C)NC(=O)[C@@H]1CSSC[C@H](NC(=O)[C@H](CCCNC(=N)N)NC(=O)CC[C@H](NC(=O)CCCCCCCCCCCCCCCCCCC(=O)O)C(=O)O)C(=O)NCC(=O)N[C@@H]([C@@H](C)O)C(=O)N[C@@H](C)C(=O)N[C@@H]([C@@H](C)O)C(=O)N1)[C@@H](C)O [Compound 7, [19CD]-isoGlu-R-C( )-GTAT-C( )-ATERLAHFLQRSSF-Gly(Me)-A-Ile(Me)-LSSTEVGSNT-Hyp-NH2] ({C20 diacid-γGlu}-RCGTATCATERLAHFLQRSSF[Sar]A[NMeI]LSSTEVGSNT[Hyp]-NH2; disulfide 2-7)	122 ± 29
FD	FND	FND	0.00406	36.7	CC[C@H](C)[C@@H](C(=O)N[C@@H](CC(C)C)C(=O)N[C@@H](CO)C(=O)N[C@@H](CO)C(=O)N[C@H](C(=O)N[C@@H](CCC(=O)O)C(=O)N[C@H](C(=O)NCC(=O)N[C@@H](CO)C(=O)N[C@@H](CC(N)=O)C(=O)N[C@H](C(=O)N1C[C@H](O)C[C@H]1C(N)=O)[C@@H](C)O)C(C)C)[C@@H](C)O)N(C)C(=O)[C@H](C)NC(=O)CN(C)C(=O)[C@H](Cc1ccccc1)NC(=O)[C@H](CO)NC(=O)[C@H](CO)NC(=O)[C@H](CCCNC(=N)N)NC(=O)[C@H](CCC(N)=O)NC(=O)[C@H](CC(C)C)NC(=O)[C@H](Cc1ccccc1)NC(=O)[C@H](CC(=O)O)NC(=O)[C@H](C)NC(=O)[C@H](CC(C)C)NC(=O)[C@H](CCCNC(=N)N)NC(=O)[C@H](CCC(N)=O)NC(=O)[C@@H](NC(=O)[C@H](C)NC(=O)[C@@H]1CSSC[C@H](NC(=O)[C@H](CCCNC(=N)N)NC(=O)CC[C@H](NC(=O)CCCCCCCCCCCCCCCCCCC(=O)O)C(=O)O)C(=O)N[C@@H](CC(N)=O)C(=O)N[C@@H]([C@@H](C)O)C(=O)N[C@@H](C)C(=O)N[C@@H]([C@@H](C)O)C(=O)N1)[C@@H](C)O [Compound 49, [19CD]-isoGlu-R-C( )-NTAT-C( )-ATQRLADFLQRSSF-Gly(Me)-A-Ile(Me)-LSSTEVGSNT-Hyp-NH2] ({C20 diacid-γGlu}-RCNTATCATQRLADFLQRSSF[Sar]A[NMeI]LSSTEVGSNT[Hyp]-NH2; disulfide 2-7)	–
FND	FND	FND	0.0045	26.2	CC[C@H](C)[C@@H](C(=O)N[C@@H](CC(C)C)C(=O)N[C@@H](CO)C(=O)N[C@@H](CO)C(=O)N[C@H](C(=O)N[C@@H](CCC(=O)O)C(=O)N[C@H](C(=O)NCC(=O)N[C@@H](CO)C(=O)N[C@@H](CC(N)=O)C(=O)N[C@H](C(=O)N1C[C@H](O)C[C@H]1C(N)=O)[C@@H](C)O)C(C)C)[C@@H](C)O)N(C)C(=O)[C@H](C)NC(=O)CN(C)C(=O)[C@H](Cc1ccccc1)NC(=O)[C@H](CO)NC(=O)[C@H](CO)NC(=O)[C@H](CCCNC(=N)N)NC(=O)[C@H](CCC(N)=O)NC(=O)[C@H](CC(C)C)NC(=O)[C@H](Cc1ccccc1)NC(=O)[C@H](CCCC(=O)O)NC(=O)[C@H](C)NC(=O)[C@H](CC(C)C)NC(=O)[C@H](CCCNC(=N)N)NC(=O)[C@H](CCC(=O)O)NC(=O)[C@@H](NC(=O)[C@H](C)NC(=O)[C@@H]1CSSC[C@H](NC(=O)[C@H](CCCNC(=N)N)NC(=O)CC[C@H](NC(=O)CCCCCCCCCCCCCCCCCCC(=O)O)C(=O)O)C(=O)NCC(=O)N[C@@H]([C@@H](C)O)C(=O)N[C@@H](C)C(=O)N[C@@H]([C@@H](C)O)C(=O)N1)[C@@H](C)O [Compound 55, [19CD]-isoGlu-R-C( )-GTAT-C( )-ATERLA-Aad-FLQRSSF-Gly(Me)-A-Ile(Me)-LSSTEVGSNT-Hyp-NH2] ({C20 diacid-γGlu}-RCGTATCATERLA[Aad]FLQRSSF[Sar]A[NMeI]LSSTEVGSNT[Hyp]-NH2; disulfide 2-7)	–
FND	FND	FND	0.0078	17.9	CC[C@H](C)[C@@H](C(=O)N[C@@H](CC(C)C)C(=O)N[C@@H](CO)C(=O)N[C@@H](CO)C(=O)N[C@H](C(=O)N[C@@H](CCC(=O)O)C(=O)N[C@H](C(=O)NCC(=O)N[C@@H](CO)C(=O)N[C@@H](CC(N)=O)C(=O)N[C@H](C(=O)N1C[C@H](O)C[C@H]1C(N)=O)[C@@H](C)O)C(C)C)[C@@H](C)O)N(C)C(=O)[C@H](C)NC(=O)CN(C)C(=O)[C@H](Cc1ccccc1)NC(=O)[C@H](CO)NC(=O)[C@H](CO)NC(=O)[C@H](CCCNC(=N)N)NC(=O)[C@H](CCC(N)=O)NC(=O)[C@H](CC(C)C)NC(=O)[C@H](Cc1ccccc1)NC(=O)[C@H](Cc1c[nH]cn1)NC(=O)[C@H](C)NC(=O)[C@H](CC(C)C)NC(=O)[C@H](CCCNC(=N)N)NC(=O)[C@H](CCC(=O)O)NC(=O)[C@@H](NC(=O)[C@H](C)NC(=O)[C@@H]1CSSC[C@H](NC(=O)[C@H](CCCNC(=N)N)NC(=O)CC[C@H](NC(=O)CCCCCCCCCCCCCCCCCCC(=O)O)C(=O)O)C(=O)N[C@@H](CCC(N)=O)C(=O)N[C@@H]([C@@H](C)O)C(=O)N[C@@H](C)C(=O)N[C@@H]([C@@H](C)O)C(=O)N1)[C@@H](C)O [Compound 57, [19CD]-isoGlu-R-C( )-QTAT-C( )-ATERLAHFLQRSSF-Gly(Me)-A-Ile(Me)-LSSTEVGSNT-Hyp-NH2] ({C20 diacid-γGlu}-RCQTATCATERLAHFLQRSSF[Sar]A[NMeI]LSSTEVGSNT[Hyp]-NH2; disulfide 2-7)	–
FND	FD	FD	0.0146	–	CC[C@H](C)[C@@H](C(=O)N[C@@H](CC(C)C)C(=O)N[C@@H](CO)C(=O)N[C@@H](CO)C(=O)N[C@H](C(=O)N[C@@H](CCC(=O)O)C(=O)N[C@H](C(=O)NCC(=O)N[C@@H](CO)C(=O)NCC(=O)N[C@H](C(=O)N1C[C@H](O)C[C@H]1C(N)=O)[C@@H](C)O)C(C)C)[C@@H](C)O)N(C)C(=O)[C@H](C)NC(=O)CN(C)C(=O)[C@H](Cc1ccccc1)NC(=O)[C@H](CO)NC(=O)[C@H](CO)NC(=O)[C@H](CCCNC(=N)N)NC(=O)[C@H](CCC(N)=O)NC(=O)[C@H](CC(C)C)NC(=O)[C@H](Cc1ccccc1)NC(=O)[C@H](Cc1c[nH]cn1)NC(=O)[C@H](C)NC(=O)[C@H](CC(C)C)NC(=O)[C@H](CCCNC(=N)N)NC(=O)[C@H](CCC(N)=O)NC(=O)[C@@H](NC(=O)[C@H](C)NC(=O)[C@@H]1CSSC[C@H](NC(=O)[C@H](CCCNC(=N)N)NC(=O)CC[C@H](NC(=O)CCCCCCCCCCCCCCCCCCC(=O)O)C(=O)O)C(=O)N[C@@H](CC(N)=O)C(=O)N[C@@H]([C@@H](C)O)C(=O)N[C@@H](C)C(=O)N[C@@H]([C@@H](C)O)C(=O)N1)[C@@H](C)O [Compound 71, [19CD]-isoGlu-R-C( )-NTAT-C( )-ATQRLAHFLQRSSF-Gly(Me)-A-Ile(Me)-LSSTEVGSGT-Hyp-NH2] ({C20 diacid-γGlu}-RCNTATCATQRLAHFLQRSSF[Sar]A[NMeI]LSSTEVGSGT[Hyp]-NH2; disulfide 2-7)	–

Source: patent publication US20210115104A1, “AMYLIN ANALOGUES” (Zealand Pharma A/S, priority 2015, published 2021)
